Source: ChEMBL document CHEMBL6071154, “A patent review of SCF E3 ligases inhibitors for cancer:Structural design, pharmacological activities and structure-activity relationship” (Eur J Med Chem, 2024)
One block for each compound: values may come before it.

How the values were obtained:
A549 = experiment: Antiproliferative activity against human A549 cells assessed as reduction in cell growth; type: functional, cell-based
HT-1080 = experiment: Antiproliferative activity against human HT-1080 cells assessed as reduction in cell viability; type: functional, cell-based
NCI-H2170 = experiment: Antiproliferative activity against human NCI-H2170 cells assessed as reduction in cell growth incubated for 72 hrs by CCK-8 assay; type: functional, cell-based; conditions: NCI-H2170, 72 h
NCI-H358 = experiment: Antiproliferative activity against human NCI-H358 cells assessed as reduction in cell growth incubated for 72 hrs by CCK-8 assay; type: functional, cell-based; conditions: NCI-H358, 72 h
LNCaP = experiment: Antiproliferative activity against human LNCAP cells assessed as reduction in cell viability incubated for 24 hrs by MTT assay
[1] = Inhibition of NF-kappaB (unknown origin); design: species or system Homo sapiens
DU-145 = experiment: Antiproliferative activity against human DU-145 cells assessed as reduction in cell viability incubated for 48 hrs by CCK8 assay; type: functional, cell-based; conditions: DU-145, 48 h
HGC-27 = experiment: Antiproliferative activity against human HGC-27 cells assessed as reduction in cell growth incubated for 24 hrs by CCK-8 assay; type: functional, cell-based; conditions: HGC-27, 24 h
PC-3 = experiment: Antitumor activity against human PC-3 cells xenografted in mouse assessed as tumor growth inhibition at 10 mg/kg, po administered once daily relative to control; type: functional; design: scale not given: the % may be the effect or the level left
[2] = target: S-phase kinase-associated protein 2 (Homo sapiens, UniProt Q13309); experiment: Inhibition of SKP2 (unknown origin)
Chain of S-phase kinase-associated protein 2 (Q13309 whole entry): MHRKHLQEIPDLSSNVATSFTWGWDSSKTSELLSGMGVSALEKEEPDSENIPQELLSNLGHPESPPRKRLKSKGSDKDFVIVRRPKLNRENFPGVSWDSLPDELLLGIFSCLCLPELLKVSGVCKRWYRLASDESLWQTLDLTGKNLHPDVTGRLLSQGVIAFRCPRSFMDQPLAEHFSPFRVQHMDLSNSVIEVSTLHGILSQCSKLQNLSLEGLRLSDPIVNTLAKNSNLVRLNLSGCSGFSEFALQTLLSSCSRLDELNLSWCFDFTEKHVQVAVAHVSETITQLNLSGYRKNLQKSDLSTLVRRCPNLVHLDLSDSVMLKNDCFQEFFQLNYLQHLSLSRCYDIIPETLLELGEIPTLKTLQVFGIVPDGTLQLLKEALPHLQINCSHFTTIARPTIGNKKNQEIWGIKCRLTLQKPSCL

IC50 (A549): 4.09 µM
IC50 (HT-1080): 0.74 µM
SMILES: COc1ccc(Oc2cc(NS(=O)(=O)c3ccc(C)cc3)c3ncccc3c2)cc1

IC50 (NCI-H2170): 7.31 µM
IC50 (NCI-H358): 6.97 µM
SMILES: O=C(Nc1cc(F)cc(F)c1)Nc1cccc(CNc2ccc(Cl)cc2)c1

IC50 (LNCaP): 1.09 µM
SMILES: CCCCc1ccc(NC(C)=O)c(C)c1

IC50 (LNCaP): 4.63 µM
SMILES: CC(C)(C)c1cc2cc(NC(=O)c3cccs3)ccc2[nH]1

IC50 [1]: 5.2 µM
SMILES: O=C(O)c1ccc(N2N=C(Cc3ccccc3)/C(=C\c3ccc(-c4ccccc4F)o3)C2=O)cc1

IC50 (NCI-H2170): 4.12 µM
IC50 (NCI-H358): 5.8 µM
SMILES: N#Cc1ccc(OCc2cccc(NC(=O)Nc3cc(F)cc(F)c3)c2)cc1

IC50 (NCI-H2170): 3.19 µM
IC50 (NCI-H358): 7.9 µM
SMILES: O=C(Nc1cc(F)cc(F)c1)Nc1cccc(COc2ccc(Cl)cc2)c1

IC50 (A549): 4.11 µM
IC50 (HT-1080): 0.08 µM
SMILES: Cc1ccc(S(=O)(=O)Nc2cc(Oc3cc(F)cc(F)c3)cc3cccnc23)cc1

IC50 (A549): 6.48 µM
IC50 (HT-1080): 6.83 µM
SMILES: Cc1ccc(S(=O)(=O)Nc2cc(Oc3cccc(C#N)c3)cc3cccnc23)cc1

IC50 (HT-1080): 0.00175 µM
SMILES: COc1cc(C)ccc1-c1nc(C)c(NC(=O)OCc2ccc3c(c2)nc2n3CCOC2)s1

IC50 (NCI-H2170): 5.6 µM
IC50 (NCI-H358): 5.85 µM
SMILES: O=C(Nc1cc(F)cc(F)c1)Nc1cccc(COc2ncc(Cl)cn2)c1

IC50 (DU-145): 19.7 µM
SMILES: C/C=C/C(=O)c1c(OC)cc(=O)oc1C

IC50 (DU-145): 50 µM
SMILES: CCOc1nc2cccc(C(=O)OCc3oc(=O)oc3C)c2n1Cc1ccc(-c2ccccc2-c2noc(=O)[nH]2)cc1 [AZILSARTAN MEDOXOMIL]
IC50 (HGC-27): 0.399 µM

IC50 (LNCaP): 1.71 µM
SMILES: O=C(OCn1ncc(Cl)c(Cl)c1=O)c1cccc(C(F)(F)F)c1

IC50 (NCI-H2170): 7.93 µM
IC50 (NCI-H358): 8.1 µM
SMILES: O=C(Nc1cc(F)cc(F)c1)Nc1cccc(COc2ccccc2Cl)c1

IC50 [2]: 2.76 µM
SMILES: O=C(CCl)NC1CCN(c2cnc(-c3ccccc3)c(-c3ccccc3)n2)CC1
Activity (PC-3): 55.68%

IC50 (NCI-H2170): 5.55 µM
IC50 (NCI-H358): 6.4 µM
SMILES: O=C(Nc1cc(F)cc(F)c1)Nc1cccc(COc2ccc(Cl)cc2Cl)c1

IC50 (LNCaP): 3.56 µM
SMILES: CS(=O)(=O)c1ccc(CCC(=O)Nc2ccccn2)cc1

IC50 (HT-1080): 0.00164 µM
SMILES: CCn1nnc2cc(COC(=O)Nc3sc(-c4ccc(C)cc4OC)nc3C)ccc21

IC50 (NCI-H2170): 4.47 µM
IC50 (NCI-H358): 4.73 µM
SMILES: CC(Oc1ccc(C#N)cc1)c1cccc(NC(=O)Nc2cc(F)cc(F)c2)c1 (configuration not stated)
